# Test results published in ChEMBL document CHEMBL2429817, “Trisubstituted imidazoles as positive modulators of metabotropic glutamate receptor subtype 5” (ACS Med Chem Lett, 2013).
# Biological target: Metabotropic glutamate receptor 5 (Homo sapiens, UniProt P41594)
# Assay: Positive modulation of human recombinant mGluR5 expressed in HEK293A cells by calcium based FLIPR assay
# Format: functional, cell-based, HEK293-A
# Metabotropic glutamate receptor 5, sequence (P41594 whole entry): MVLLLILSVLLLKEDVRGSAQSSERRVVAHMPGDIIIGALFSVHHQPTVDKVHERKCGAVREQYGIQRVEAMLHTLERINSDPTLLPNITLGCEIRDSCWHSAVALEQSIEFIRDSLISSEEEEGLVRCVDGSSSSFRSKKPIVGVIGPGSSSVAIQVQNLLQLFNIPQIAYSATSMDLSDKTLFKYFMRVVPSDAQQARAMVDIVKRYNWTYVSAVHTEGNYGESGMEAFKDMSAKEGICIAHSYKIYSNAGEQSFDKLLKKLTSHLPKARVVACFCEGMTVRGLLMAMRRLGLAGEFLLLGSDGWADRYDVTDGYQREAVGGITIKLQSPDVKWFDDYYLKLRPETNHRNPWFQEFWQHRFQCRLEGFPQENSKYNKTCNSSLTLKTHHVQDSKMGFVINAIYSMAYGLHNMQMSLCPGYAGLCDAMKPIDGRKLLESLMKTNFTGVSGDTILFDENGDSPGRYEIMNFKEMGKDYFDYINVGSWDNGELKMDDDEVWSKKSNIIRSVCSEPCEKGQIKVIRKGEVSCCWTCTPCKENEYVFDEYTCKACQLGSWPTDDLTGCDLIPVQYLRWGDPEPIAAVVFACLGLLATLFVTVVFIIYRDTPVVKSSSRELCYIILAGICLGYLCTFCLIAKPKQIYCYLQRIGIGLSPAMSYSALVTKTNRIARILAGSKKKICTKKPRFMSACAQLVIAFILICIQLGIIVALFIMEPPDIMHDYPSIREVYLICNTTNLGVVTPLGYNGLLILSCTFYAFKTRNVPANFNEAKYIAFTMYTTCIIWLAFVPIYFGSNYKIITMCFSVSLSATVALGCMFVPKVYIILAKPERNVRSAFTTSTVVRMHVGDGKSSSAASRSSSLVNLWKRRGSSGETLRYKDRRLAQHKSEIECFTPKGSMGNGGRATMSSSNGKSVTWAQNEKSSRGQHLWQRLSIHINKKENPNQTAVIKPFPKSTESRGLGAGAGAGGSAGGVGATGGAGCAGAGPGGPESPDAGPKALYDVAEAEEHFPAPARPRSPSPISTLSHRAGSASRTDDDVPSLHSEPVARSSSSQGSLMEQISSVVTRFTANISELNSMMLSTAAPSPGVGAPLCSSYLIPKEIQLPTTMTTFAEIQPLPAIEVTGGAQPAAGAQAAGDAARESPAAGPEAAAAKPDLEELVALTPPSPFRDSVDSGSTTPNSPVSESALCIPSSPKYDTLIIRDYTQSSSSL
row,EC50 [nM],SMILES
1,858,Cc1cc(-c2cn(CC(=O)N3CCN(c4cccnn4)CC3)c(-c3ccccc3)n2)ccc1F
2,90,CC1=NC2CCN(C(=O)Cn3cc(-c4ccc(F)c(C)c4)nc3-c3ccccc3)CC2O1 (centres undefined)
3,40,CC1=NC2CCN(C(=O)Cn3cc(-c4ccc(F)c(C)c4)nc3-c3ccc(F)cc3)CC2O1 (centres undefined)
4,53,Cc1cc(-c2cn(CC(=O)N3CCN(c4ccccn4)CC3)c(-c3ccc(F)cc3)n2)ccc1F
